# Measurements as given in PMC11677126, “Synthesis and Structure–Activity Relationship of Thiourea Derivatives Against Leishmania amazonensis” (Pharmaceuticals, 2024).
# Like-named read-outs stand apart in the source and are kept apart here.
# Tests used:
# [1] = tested on: L. amazonensis promastigote; test: Antipromastigote assay (resazurin fluorescence); assay type: cell-based, Leishmania amazonensis; conditions: promastigotes, 72 h at 26 °C
# Description: The fluorescence was measured using a Spectra Max GEMINI XPS spectrofluorometer (Molecular Devices, Silicon Valley, CA, USA) at excitation and emission wavelengths of 560 nm and 590 nm, respectively.
# [2] = Toxicity assay in murine macrophages (resazurin); assay type: cell-based; conditions: BALB/c, mouse, mouse peritoneal macrophages
# Description: Mouse peritoneal macrophages (2 × 10^6 cells/mL) in 96-well plates were treated with different concentrations of thiourea compounds (G1: 0–400 µM and G2: 0–125 µM) for 72 h at 37 °C/5% CO2. After removing the supernatant, viable cells were quantified by adding resazurin in phosphate-buffered saline, a final concentration of 50 µM, and then the samples were incubated for an additional 3 h. The fluorescence was measured using a Spectra Max GEMINI XPS spectrofluorometer (Molecular Devices, Silicon Valley, CA, USA) at excitation and emission wavelengths of 560 nm and 590 nm, respectively. The percentage of viable cells was calculated relative to the control cells. The cytotoxic concentrations lethal to 50% of the cells (CC50) were obtained by nonlinear regression of the sigmoid growth curves using the Graph Pad Prism 9.0 software.
# [3] = tested on: L. amazonensis intracellular amastigotes; test: Antiamastigote assay in infected peritoneal macrophages (infection index); assay type: cell-based; conditions: Leishmania amazonensis, Peritoneal macrophage, 72 h
# Description: Resident macrophages from BALB/c mice were obtained by peritoneal lavage with 5 mL of cold RPMI medium. The cell suspension was adjusted to a 2 × 10^6 cells/mL concentration and plated in LAB-TEK chambers. After 1 h, the cultures were washed with phosphate-buffered saline at 37 °C to remove non-adherent cells. The remaining cells were incubated at 37 °C/5% CO2 with promastigotes of L. amazonensis at a ratio of 3:1. After 3 h, the chambers were rewashed to remove free parasites. […] For G2, we first tested only at a concentration of 10 µM, and derivatives with inhibition above 60% were evaluated using the dose–response curve. The antiamastigote activity was evaluated microscopically after staining the chambers with the Instant Prov hematological dye system (Newprov, Curitiba, Brazil); at least 100 macrophages were counted per sample. The results were expressed as the infection index (IF) using the following formula: IF = % infected cells X (number of amastigotes/total macrophages). The IC50 value was determined by nonlinear regression using Graph Pad Prism 9.0.
# [4] = tested on: Leishmania amazonensis amastigotes; design: method as in PMID 28966275; conditions: read-out: IC50 (amastigote); cited from earlier work
# [5] = tested on: L. amazonensis promastigote; design: method as in PMID 28966275; conditions: cited from earlier work
# [6] = tested on: Leishmania infantum amastigotes; design: method as in PMID 30782984; conditions: cited from earlier work
# [7] = tested on: Leishmania major promastigotes; design: method as in PMID 36001225; conditions: after 48 h (text b28); cited from earlier work
# [8] = tested on: L. amazonensis promastigotes; design: method as in doi:10.5897/JMA2013.0261; conditions: L. amazonensis promastigotes (text b27); cited from earlier work
# L. infantum amastigote = conditions: cited from earlier work
# L. donovani amastigote = conditions: cited from earlier work
# [9] = Leishmania amazonensis, 72 h, G1 thioureas, maximum concentration tested 100 µM
# [10] = G2 piperazine thioureas, 0–125 µM
# [11] = G2 piperazine thioureas, maximum concentration tested 10 µM, unit from footnote
# [12] = Leishmania amazonensis, 72 h, G2 piperazine thioureas
# [13] = G1 thioureas, maximum concentration tested 25 µM
# [14] = G1 thioureas, maximum concentration tested 100 µM
Compound,"IC50 [1, 9]","IC50 [1, 12]",further results
S=C(NCCc1ccccc1)Nc1ccccn1 [Thiourea 3f],> 100 µM,,
S=C(NCCc1ccccc1)N1CCN(c2ccccc2Cl)CC1 [Thiourea 5l],,28.2 ± 2.5 µM,"CC50 at 72 h [2, 10]: 79.5 ± 19.8 µM; IC50 [3, 11]: > 10 µM"
S=C(NCCc1ccccc1)Nc1ccc2c(c1)OCO2 [Compound 8],,,IC50 [4]: 70 µM; IC50 [5]: 54.1 ± 6.77 µM
S=C(NCc1ccccc1)N1CCOCC1 [Thiourea 3b],> 100 µM,,
meglumine antimoniate,,,IC50 [4]: 212 µM
CCc1nnc(NC(=S)NCc2ccccc2)s1 [Thiourea 3s],58.4 ± 1.9 µM,,
COc1cc(NC(=S)NCc2ccccc2)cc(OC)c1 [Thiourea 3k],> 100 µM,,
S=C(Nc1ccccc1)Nc1ccc(Br)cc1 [Thiourea 3p],< 50 µM,,"CC50 at 72 h ([2]; G1 thioureas, 0–400 µM): > 400 µM; IC50 [3, 13]: 8.7 ± 1.4 µM; IC50 [1, 14]: 32.9 ± 9.5 µM"
CCCCNC(=S)Nc1ccc([Se][Se]c2ccc(NC(=S)NCCCC)cc2)cc1 [Compound 10],,,IC50 [6]: 2.36 ± 0.44 µM
COc1cc(NC(=S)N2CCN(C(c3ccccc3)c3ccccc3)CC2)cc(OC)c1OC [Thiourea 5t],,22.3 ± 1.6 µM,"CC50 at 72 h [2, 10]: 81.3 ± 16.9 µM; IC50 [3, 11]: 4.9 ± 1.2 µM"
CN(C[C@H](O)[C@@H](O)[C@H](O)[C@H](O)CO)C(=S)NCc1ccccc1 [Thiourea 3w],> 100 µM,,
S=C(NCc1ccccc1)Nc1ccc(Br)cc1 [Thiourea 3q],< 50 µM,,"CC50 at 72 h ([2]; G1 thioureas, 0–400 µM): > 400 µM; IC50 [3, 13]: > 25 µM; IC50 [1, 14]: 44.4 ± 10.6 µM"
COc1cc(NC(=S)N2CCN(C(=O)C3CCCO3)CC2)cc(OC)c1OC (stereo not shown) [Thiourea 5r],,> 128 µM,
Cc1nnc(NC(=S)Nc2ccccc2)s1 [Thiourea 3r],65.8 ± 8.2 µM,,
CCCCNC(=S)Nc1ccccc1 [Thiourea 3t],60 ± 6.4 µM,,
COc1cc(NC(=S)N2CCN(Cc3ccc(OC)c(OC)c3OC)CC2)cc(OC)c1OC [Thiourea 5v],,> 128 µM,
S=C(Nc1ccccc1)N1CCN(c2ccccc2Cl)CC1 [Thiourea 5j],,> 128 µM,
S=C(NCc1ccccc1)N1CCN(Cc2ccc3c(c2)OCO3)CC1 [Thiourea 5e],,30.3 ± 4.6 µM,"CC50 at 72 h [2, 10]: 122 ± 2.8 µM; IC50 [3, 11]: > 10 µM"
COc1cc(NC(=S)Nc2nnc(C(F)(F)F)s2)cc(OC)c1OC [Thiourea 3a′],77.8 ± 6.7 µM,,
S=C(NCc1ccccc1)N1CCN(C(c2ccccc2)c2ccccc2)CC1 [Thiourea 5h],,7.9 ± 1.9 µM,"CC50 at 72 h [2, 10]: > 125 µM; IC50 [3, 11]: 8.8 ± 3.5 µM"

Compound,"IC50 [1, 9]","IC50 [1, 12]",further results
O=C(NNC(=S)NCc1ccccc1)c1ccccc1 [Thiourea 3o],80.4 ± 10 µM,,
COc1ccc(CN2CCN(C(=S)NCc3ccccc3)CC2)c(OC)c1OC [Thiourea 5n],,42.5 ± 1.6 µM,"CC50 at 72 h [2, 10]: 88.3 ± 5.6 µM; IC50 [3, 11]: > 10 µM"
Cc1sc(NC(=S)NC(=O)C2CC2)nc1-c1ccccc1 [Compound 11],,,IC50 [7]: 122 ± 1.41 µM
Cc1ccccc1NC(=S)NCc1ccccc1 [Thiourea 3u],56.2 ± 4.2 µM,,
S=C(NCc1ccccc1)Nc1ccccn1 [Thiourea 3e],< 50 µM,,"CC50 at 72 h ([2]; G1 thioureas, 0–400 µM): > 400 µM; IC50 [1, 14]: 25.4 ± 8.3 µM"
S=C(Nc1ccccc1)N1CCN(Cc2ccc3c(c2)OCO3)CC1 [Thiourea 5d],,90.2 ± 2.9 µM,
COc1cc(NC(=S)N2CCOCC2)cc(OC)c1OC [Thiourea 3x],> 100 µM,,
O=C(C1CCCO1)N1CCN(C(=S)NCc2ccccc2)CC1 (stereo not shown) [Thiourea 5b],,77.5 ± 4.5 µM,
COc1cc(NC(=S)NCCc2ccccc2)cc(OC)c1OC [Thiourea 3m],> 100 µM,,
S=C(NCCc1ccccc1)N1CCN(C(c2ccccc2)c2ccccc2)CC1 [Thiourea 5i],,6.9 ± 2 µM,"CC50 at 72 h [2, 10]: > 125 µM; IC50 [3, 11]: 1.8 ± 0.5 µM"
COc1ccc(NC(=S)Nc2cc(OC)c(OC)c(OC)c2)cc1OC [Thiourea 3z],> 100 µM,,
S=C(Nc1ccccc1)N1CCN(C(c2ccccc2)c2ccccc2)CC1 [Thiourea 5g],,30.7 ± 3.2 µM,"CC50 at 72 h [2, 10]: > 125 µM; IC50 [3, 11]: > 10 µM"
S=C(Nc1ccccc1)N1CCN(c2nc3ccccc3[nH]2)CC1 [Thiourea 5p],,> 128 µM,
COc1cc(NC(=S)N2CCN(Cc3ccc4c(c3)OCO4)CC2)cc(OC)c1OC [Thiourea 5s],,> 128 µM,
Oc1cccc(NC(=S)NCc2ccccc2)c1 [Thiourea 3v],> 100 µM,,
COc1ccc(NC(=S)NCc2ccccc2)cc1 [Thiourea 3h],61.6 ± 6.5 µM,,
COc1ccc(CN2CCN(C(=S)NCCc3ccccc3)CC2)c(OC)c1OC [Thiourea 5o],,> 128 µM,
S=C(Nc1ccccc1)N1CCOCC1 [Thiourea 3a],> 100 µM,,
"CCCCCCCCCCCCCCCCOP(=O)([O-])OCC[N+](C)(C)C [Miltefosine, reference compound]",6.9 ± 2.4 µM,6.9 ± 2.4 µM,"IC50 [3, 13]: 7.5 ± 1.2 µM; IC50 [3, 11]: 7.5 ± 1.2 µM; IC50 [6]: 2.84 ± 0.1 µM"
O=C(C1CCCO1)N1CCN(C(=S)NCCc2ccccc2)CC1 (stereo not shown) [Thiourea 5c],,> 128 µM,

Compound,"IC50 [1, 9]","IC50 [1, 12]",further results
S=C(NCCc1ccccc1)N1CCN(Cc2ccc3c(c2)OCO3)CC1 [Thiourea 5f],,> 128 µM,
S=C(NCCc1ccccc1)N1CCN(c2nc3ccccc3[nH]2)CC1 [Thiourea 5q],,18.8 ± 3.1 µM,"CC50 at 72 h [2, 10]: 72.9 ± 32.2 µM; IC50 [3, 11]: > 10 µM"
CCOC(=O)c1ccc(NC(N)=S)cc1 [Thiourea 9],,,IC50 [8]: 45 µM
CCCCNC(=S)Nc1cc(OC)c(OC)c(OC)c1 [Thiourea 3b′],> 100 µM,,
S=C(NCc1ccccc1)N1CCN(c2ccccc2Cl)CC1 [Thiourea 5k],,30.7 ± 3 µM,"CC50 at 72 h [2, 10]: 68.3 ± 2.8 µM; IC50 [3, 11]: > 10 µM"
COc1cc(NC(=S)N2CCN(c3ccccc3Cl)CC2)cc(OC)c1OC [Thiourea 5u],,> 128 µM,
S=C(NCCc1ccccc1)N1CCOCC1 [Thiourea 3c],> 100 µM,,
COc1ccc(NC(=S)Nc2ccccc2)cc1 [Thiourea 3g],> 100 µM,,
N=C(N)c1ccc(OCCCCCOc2ccc(C(=N)N)cc2)cc1 [pentamidine],,,IC50 [8]: 0.46 µM
O=C(C1CCCO1)N1CCN(C(=S)Nc2ccccc2)CC1 (stereo not shown) [Thiourea 5a],,> 128 µM,
COc1cc(NC(=S)Nc2ccccn2)cc(OC)c1OC [Thiourea 3y],> 100 µM,,
COc1ccc(CN2CCN(C(=S)Nc3ccccc3)CC2)c(OC)c1OC [Thiourea 5m],,> 128 µM,
CC(C)Oc1cc(C(=O)Nc2cc(-c3ccccn3)n[nH]2)cc(C(=O)N2CCCC2)c1 [Compound 6],,,IC50 (L. infantum amastigote): > 42.4 µM; IC50 (L. donovani amastigote): ≥ 10.9 µM
COc1ccc(NC(=S)NCc2ccccc2)cc1OC [Thiourea 3i],> 100 µM,,
COc1ccc(NC(=S)NCCc2ccccc2)cc1OC [Thiourea 3j],> 100 µM,,
C[C@@H]1[C@H](O)[C@@H](C)/C=C/C=C/C=C/C=C/C=C/C=C/C=C/[C@H](O[C@@H]2O[C@H](C)[C@@H](O)[C@H](N)[C@@H]2O)C[C@@H]2O[C@](O)(C[C@@H](O)C[C@@H](O)[C@H](O)CC[C@@H](O)C[C@@H](O)CC(=O)O[C@H]1C)C[C@H](O)[C@H]2C(=O)O [amphotericin B],,,IC50 [7]: 0.2 ± 0.01 µM
COc1cc(NC(=S)NCCc2ccccc2)cc(OC)c1 [Thiourea 3l],> 100 µM,,
S=C(Nc1ccccc1)Nc1ccccn1 [Thiourea 3d],,,"CC50 at 72 h ([2]; G1 thioureas, 0–400 µM): > 400 µM; IC50 [3, 13]: 10.8 ± 2.4 µM"
